Data from patent US20150140005A1, “Methods and Uses for Proprotein Convertase Subtilisin Kexin 9 (PCSK9) Inhibitors” (Cyon Therapeutics Inc., priority 2012, published 2015).

Key:
LPS treated LDLR−/− mice = assay: Responses to LPS treatment (lipopolysaccharide induced systemic inflammation) in LDLR−/− mice treated with saline or berberine; format: in vivo
Description: Healthy mice had activity level, body temperature, blood pressure, and cardiac function (echocardiography) assessed at baseline (time 0) as detailed below. Mice were then injected intra-peritoneally with LPS (20 mg/kg, E. coli strain 01 II: B4, Sigma™, St. Louis, Mo.). This dose was determined from previous experiments where, in the background strain of C57BL/6 mice, LPS 20 mg/kg delivered intra-peritoneally was the lowest dose, which was lethal in all cases within 12 hours^24. Then activity level and temperature were measured every hour for six hours. At six hours blood pressure was measured by invasive arterial cannulation and cardiac function (echocardiography) was assessed again.
Activity Index: Mice were observed during 2 minutes for posture and activity. 0 (normal) denotes that there are no times with a hunched posture, and the mouse had spontaneous rapid movements interspersed with eating and drinking. 1 (mild) is occasional brief (5-20 seconds) hunched posture, which spontaneously reverted to normal with ongoing spontaneous rapid movements interspersed with eating and drinking. 2 (mild-moderate) was longer (>20 seconds) in the hunched posture which spontaneously reverted to normal with ongoing spontaneous rapid movements interspersed with eating and drinking. 3 (moderate-severe) was nearly continual hunched posture with movement only when subjected to strong external stimuli. 4 (severe) was continual hunched posture without movement.
Temperature: Temperature was measured hourly using an infra-red thermometer (IR-101 La Crosse Technology, La Crosse USA)) held 2-3 mm from the abdomen.
Blood Pressure: At baseline (time 0) mean arterial blood pressure was measured using a non-invasive tail cuff (CODA 2™, Kent Scientific, Torrington, USA). Six hours after LPS injection, mice were anesthetized using inhaled isofluorane (1-3%). Following a small laparatomy, the abdominal aorta was punctured using a 27 gauge needle then a number 2 French micromanometer catheter (Mikro-tip SPR-838™, Millar Instruments Inc., Houston, Tex.) was inserted into the aorta. Mean arterial pressure was derived using analysis software (PVAN 2.9™, Millar Instruments Inc.).
Echocardiography: Mice were lightly anaesthetized using inhaled isofluorane (1-3%) and placed on a warming blanket. M-mode echocardiograms (ECHO) were targeted from 2D echos obtained using the Vevo 770 ECHO (Visualsonics™, Toronto, ON, Canada) operating at a 120 Hz frame rate. Left parasternal 2D left ventricular cross-sectional echocardiographic images were obtained. The position and angle of the echo transducer is maintained by directing the beam just off the tip of the anterior leaflet of the mitral valve and by maintaining internal anatomic landmarks constant. All measurements are taken from M-mode traces at end-expiration. Left ventricular internal dimensions were measured at end-diastole (defined as the onset of the QRS complex in lead II of the simultaneously obtained electrocardiogram) and at end-systole (defined as minimum internal ventricular dimension).
This is consistent with the hypothesis that the benefit derived from the inhibition of PCSK9 is the result of increased availability of LDLR and a subsequent reduction in plasma LDL.

PCSK9 = settings: intravenous infusion, as early as 8 hours after injection, non-human primates; cited from earlier work
[1] = LDLR−/− mice, 6 hrs after LPS, median (95% CI), n = 4
[2] = LDLR−/− mice, baseline, median (95% CI), n = 4

COc1ccc2cc3[n+](cc2c1OC)CCc1cc2c(cc1-3)OCO2 [Berberine, berberine]
Activity 6 hrs LPS (LPS treated LDLR−/− mice; [1]): 0 (−0.8-0.3)
EF 6 hrs LPS (LPS treated LDLR−/− mice; [1]): 26.0 (23.0-29.0)
MAP 6 hrs LPS (LPS treated LDLR−/− mice; [1]): 53 (52-54)
Activity Baseline (LPS treated LDLR−/− mice; [2]): 0 (0-0)
MAP Baseline (LPS treated LDLR−/− mice; [2]): 109 (93-125)^
Temp. Baseline (LPS treated LDLR−/− mice; [2]): 37.0 (36.2-37.9)
Differences between saline and berberine mice in responses to LPS (LPS treated LDLR−/− mice; LPS treated LDLR−/− mice, berberine vs saline): minimal differences

B1: AMG145: Amgen monoclonal antibody specific for the catalytic domain of PCSK9 (antibody, chains of the INN, looked up, V domains shown)
VH: EVQLVQSGAEVKKPGASVKVSCKASGYTLTSYGISWVRQAPGQGLEWMGWVSFYNGNTNYAQKLQGRGTMTTDPSTSTAYMELRSLRSDDTAVYYCARGYGMDVWGQGTTVTVSS
VL: ESALTQPASVSGSPGQSITISCTGTSSDVGGYNSVSWYQQHPGKAPKLMIYEVSNRPSGVSNRFSGSKSGNTASLTISGLQAEDEADYYCNSYTSTSMVFGGGTKLTVL
Circulating LDL-C levels (PCSK9): significant reduction
